From ChEMBL document CHEMBL1255330, “Efficacy of SPK-843, a novel polyene antifungal, in a murine model of systemic cryptococcosis” (Antimicrob Agents Chemother, 2008)
≈ marks a conversion by molar mass, not a printed value. Calls of active or inactive are those of the source. The rule behind the calls is not given here.

Key:
Cryptococcus neoformans [1] = experiment: Antifungal activity against Cryptococcus neoformans YC-11 by microdilution method; format: functional
Cryptococcus neoformans [2] = experiment: Antifungal activity against Cryptococcus neoformans YC-11 infected in BALB/c mouse assessed as increase in mouse survival at 0.5 mg/kg, iv qd for 5 days; format: functional, organism-based; set-up: dose 0.5 mg/kg
Cryptococcus neoformans [3] = experiment: Antifungal activity against Cryptococcus neoformans YC-11 infected in BALB/c mouse assessed as increase in mouse survival at 0.7 mg/kg, iv qd for 5 days; format: functional, organism-based; set-up: dose 0.7 mg/kg
Cryptococcus neoformans [4] = experiment: Antifungal activity against Cryptococcus neoformans YC-11 infected in BALB/c mouse kidney assessed as reduction in fungal induced tubular cell necrosis at 0.7 mg/kg, iv treated qd for 5 days measured after 7 days of infection by histopathological analysis; format: functional, organism-based; set-up: dose 0.7 mg/kg
Cryptococcus neoformans [5] = experiment: Antifungal activity against Cryptococcus neoformans YC-11 infected in BALB/c mouse liver assessed as reduction in fungal induced liver damage at 4 mg/kg, iv qd for 5 days measured after 7 days of infection by histopathological analysis; format: functional, organism-based; set-up: dose 4 mg/kg
Cryptococcus neoformans [6] = experiment: Antifungal activity against Cryptococcus neoformans YC-11 infected in BALB/c mouse liver assessed as reduction in fungal induced liver damage at 0.7 mg/kg, iv qd for 5 days measured after 7 days of infection by histopathological analysis; format: functional, organism-based; set-up: dose 0.7 mg/kg
Cryptococcus neoformans [7] = experiment: Antifungal activity against Cryptococcus neoformans YC-11 infected in BALB/c mouse assessed as increase in mouse survival at 80 mg/kg, iv qd for 5 days; format: functional, organism-based; set-up: dose 80 mg/kg
Cryptococcus neoformans [8] = experiment: Antifungal activity against Cryptococcus neoformans YC-11 infected in BALB/c mouse assessed as reduction in fungal burden in brain at 20 mg/kg, iv qd for 5 days measured after 7 days of infection; format: functional
Cryptococcus neoformans [9] = experiment: Antifungal activity against Cryptococcus neoformans YC-11 infected in BALB/c mouse assessed as reduction in fungal burden in brain at 80 mg/kg, iv qd for 5 days measured after 7 days of infection; format: functional
Cryptococcus neoformans [10] = experiment: Antifungal activity against Cryptococcus neoformans YC-11 infected in BALB/c mouse brain assessed as reduction in multiple fungal induced abscesses at 80 mg/kg, iv qd for 5 days measured after 7 days of infection by histopathological analysis; format: functional, organism-based; set-up: dose 80 mg/kg
Cryptococcus neoformans [11] = experiment: Antifungal activity against Cryptococcus neoformans YC-11 infected in BALB/c mouse assessed as reduction in fungal burden in brain at 40 mg/kg, iv qd for 5 days measured after 7 days of infection; format: functional
Cryptococcus neoformans [12] = experiment: Antifungal activity against Cryptococcus neoformans YC-11 infected in BALB/c mouse assessed as increase in mouse survival at 1 mg/kg, iv qd for 5 days; format: functional, organism-based; set-up: dose 1 mg/kg
Cryptococcus neoformans [13] = experiment: Antifungal activity against Cryptococcus neoformans YC-11 infected in BALB/c mouse assessed as increase in mouse survival at 4 mg/kg, iv qd for 5 days; format: functional, organism-based; set-up: dose 4 mg/kg
Cryptococcus neoformans [14] = experiment: Antifungal activity against Cryptococcus neoformans YC-11 infected in BALB/c mouse assessed as reduction in fungal burden in brain at 1 mg/kg, iv qd for 5 days measured after 7 days of infection; format: functional
Cryptococcus neoformans [15] = experiment: Antifungal activity against Cryptococcus neoformans YC-11 infected in BALB/c mouse assessed as reduction in fungal burden in brain at 4 mg/kg, iv treated qd for 5 days measured after 7 days of infection; format: functional
Cryptococcus neoformans [16] = experiment: Antifungal activity against Cryptococcus neoformans YC-11 infected in BALB/c mouse brain assessed as reduction in fungal induced abscesses at 4 mg/kg, iv qd for 5 days measured after 7 days of infection by histopathological analysis; format: functional, organism-based; set-up: dose 4 mg/kg
Cryptococcus neoformans [17] = experiment: Antifungal activity against Cryptococcus neoformans YC-11 infected in BALB/c mouse brain assessed as reduction in multiple fungal induced abscesses at 1 mg/kg, iv qd for 5 days measured after 7 days of infection by histopathological analysis; format: functional, organism-based; set-up: dose 1 mg/kg
Cryptococcus neoformans [18] = experiment: Antifungal activity against Cryptococcus neoformans YC-11 infected in BALB/c mouse brain assessed as reduction in multiple fungal induced abscesses at 2 mg/kg, iv qd for 5 days measured after 7 days of infection by histopathological analysis; format: functional, organism-based; set-up: dose 2 mg/kg
Mus musculus = experiment: Toxicity in BALB/c mouse at 4 mg/kg, iv; format: organism-based; set-up: dose 4 mg/kg, route intravenous; settings: in vivo
Cryptococcus neoformans [19] = experiment: Antifungal activity against Cryptococcus neoformans YC-11 infected in BALB/c mouse assessed as reduction in fungal burden in brain at 2 mg/kg, iv qd for 5 days measured after 7 days of infection; format: functional

## C[C@@H]1[C@H](O)[C@@H](C)/C=C/C=C/C=C/C=C/C=C/C=C/C=C/[C@H](O[C@@H]2O[C@H](C)[C@@H](O)[C@H](N)[C@@H]2O)C[C@@H]2O[C@](O)(C[C@@H](O)C[C@@H](O)[C@H](O)CC[C@@H](O)C[C@@H](O)CC(=O)O[C@H]1C)C[C@H](O)[C@H]2C(=O)O [AMPHOTERICIN B]
Cryptococcus neoformans [1]
  MIC: 0.25 µg/mL (≈ 0.271 µM)
Cryptococcus neoformans [2]
  Activity: Active
Cryptococcus neoformans [3]
  Activity: Active
Cryptococcus neoformans [4]
  Activity: inactive
Cryptococcus neoformans [5]
  Activity: Active
Cryptococcus neoformans [6]
  Activity: Active

## OC(Cn1cncn1)(Cn1cncn1)c1ccc(F)cc1F [FLUCONAZOLE]
Cryptococcus neoformans [1]
  MIC: 2 µg/mL (≈ 6.53 µM)
Cryptococcus neoformans [7]
  Activity: Active
Cryptococcus neoformans [8]
  log10cfu: 7.03
Cryptococcus neoformans [9]
  log10cfu: 6.34
Cryptococcus neoformans [10]
  Activity: inactive
Cryptococcus neoformans [11]
  log10cfu: 6.71

## CNc1ccc(C(=O)CC(O)CC[C@H](C)[C@H]2OC(=O)C[C@H](O)CC(=O)C[C@H](O)C[C@H](O)C[C@H](O)C[C@H](O)C[C@]3(O)C[C@H](O)[C@@H](C(=O)NCCN(C)C)C(C[C@@H](OC4O[C@H](C)[C@@H](O)[C@H](NC(=O)CN(C)C)[C@@H]4O)/C=C/C=C/C=C/C=C\C=C/C=C/C=C/[C@@H]2C)O3)cc1.O=C1O[C@H]([C@H](O)CO)C(O)=C1O (some centres not stated)
Cryptococcus neoformans [1]
  MIC: 0.125 µg/mL
Cryptococcus neoformans [12]
  Activity: Active
Cryptococcus neoformans [13]
  Activity: Active
Cryptococcus neoformans [14]
  log10cfu: 7.42
Cryptococcus neoformans [15]
  log10cfu: 3.45
Cryptococcus neoformans [16]
  Activity: Active
Cryptococcus neoformans [17]
  Activity: inactive
Cryptococcus neoformans [18]
  Activity: inactive
Mus musculus
  Activity: Non-toxic
Cryptococcus neoformans [19]
  log10cfu: 6.44
